Results from patent US11613542B2, “Sulfonylureas and sulfonylthioureas as NLRP3 inhibitors” (Inflazome Limited, priority 2017, dated 2023).
Counter-ions that a name gives are not always drawn.

Columns and labels:
[1] = Pharmacokinetic parameters in male Sprague Dawley rats (intravenous and oral administration); assay type: in vivo; conditions: intravenous administration, rat plasma; dose per compound (mg/kg)
Method: Pharmacokinetic parameters were determined in male Sprague Dawley rats (Charles River, UK, 250-350 g; or Vital River Laboratory Animal Technology Co Ltd, Beijing, China, 7-9 weeks old). Animals were individually housed during the study and maintained under a 12 h light/dark cycle. Animals had free access to food and water except that some orally dosed animals were food deprived overnight prior to the study.
For intravenous administration, compounds were formulated as a solution in water or DMSO:PBS [10:90] in 2 mL/kg dosing volume and administered via tail vein. For oral administration, compounds were formulated as a solution in water or DMSO:water [10:90] in 5 mL/kg dosing volume and administered orally.
Serial blood samples (about 120-300 μL) were taken from each animal at each of 8 time-points post dose (0.083, 0.25, 0.5, 1, 2, 4, 8 and 24 h) or at each of 12 time-points post dose (0.03, 0.1, 0.17, 0.25, 0.5, 1, 2, 4, 6, 8,12 and 24 h) or pre-dose and at each of 9 time-points post dose (0.25, 0.5, 1, 2, 4, 6, 8, 12 and 24 h). Samples were held on ice for no longer than 30 minutes before centrifugation (10,000 rpm (8,385 g) for 3 minutes; or 5,696 rpm (3,000 g) for 15 minutes) for plasma generation. Plasma was frozen on dry ice prior to bioanalysis. PK parameters were generated from LC-MS/MS data using Dotmatics or Phoenix WinNonlin 6.3 software.

[2] = biological target: NLRP3 (Homo sapiens, UniProt Q96P20); assay: THP-1 cells pyroptosis assay; assay type: cell-based; parameters: Seed THP-1 cells (25,000 cells/well) containing 1.0 μg/ml LPS; host or cells: THP-1 cells, LPS-primed, nigericin-stimulated; conditions: THP-1 cells, 1.0 μg/ml LPS, compound 3 hrs, nigericin 5 μM 1 hr, resazurin readout; read-out: THP IC50
Chain of NLRP3 (Q96P20 whole entry): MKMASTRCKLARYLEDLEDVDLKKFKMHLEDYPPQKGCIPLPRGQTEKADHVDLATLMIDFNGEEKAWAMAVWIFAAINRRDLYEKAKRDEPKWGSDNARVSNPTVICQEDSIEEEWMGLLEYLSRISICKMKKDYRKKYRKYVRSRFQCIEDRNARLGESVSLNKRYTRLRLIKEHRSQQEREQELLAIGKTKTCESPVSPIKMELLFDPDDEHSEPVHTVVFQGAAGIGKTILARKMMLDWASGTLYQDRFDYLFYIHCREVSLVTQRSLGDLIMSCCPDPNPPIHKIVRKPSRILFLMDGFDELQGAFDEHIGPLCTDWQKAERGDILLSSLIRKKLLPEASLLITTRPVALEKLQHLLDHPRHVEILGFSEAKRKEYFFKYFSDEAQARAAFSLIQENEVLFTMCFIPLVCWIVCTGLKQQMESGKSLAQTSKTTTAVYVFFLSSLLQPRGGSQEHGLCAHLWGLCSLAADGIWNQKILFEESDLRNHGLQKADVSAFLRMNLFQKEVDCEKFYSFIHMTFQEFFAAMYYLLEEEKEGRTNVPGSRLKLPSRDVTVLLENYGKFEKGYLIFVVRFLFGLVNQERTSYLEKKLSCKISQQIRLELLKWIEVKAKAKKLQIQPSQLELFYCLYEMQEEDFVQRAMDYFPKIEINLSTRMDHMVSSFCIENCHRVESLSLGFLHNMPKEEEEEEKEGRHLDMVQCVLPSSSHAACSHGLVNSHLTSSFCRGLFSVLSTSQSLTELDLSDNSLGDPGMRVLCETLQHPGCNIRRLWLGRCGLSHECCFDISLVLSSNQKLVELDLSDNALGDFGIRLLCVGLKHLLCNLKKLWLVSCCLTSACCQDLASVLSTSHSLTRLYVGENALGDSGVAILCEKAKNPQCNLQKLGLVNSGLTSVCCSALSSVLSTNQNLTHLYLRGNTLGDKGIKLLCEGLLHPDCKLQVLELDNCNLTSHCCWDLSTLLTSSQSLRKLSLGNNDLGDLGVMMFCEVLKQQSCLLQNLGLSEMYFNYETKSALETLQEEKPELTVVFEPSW
From the text: NLRP and Pyroptosis It is well established that the activation of NLRP3 leads to cell pyroptosis and this feature plays an important part in the manifestation of clinical disease (Yan-gang Liu et al., Cell Death &Disease, 2017, 8(2), e2579; Alexander Wree et al., Hepatology, 2014, 59(3), 898-910; Alex Baldwin et al., Journal of Medicinal Chemistry, 2016, 59(5), 1691-171; Ema Ozaki et al., Journal of Inflammation Research, 2015, 8, 15-27; Zhen Xie & Gang Zhao, Neuroimmunology Neuroinflammation, 2014, 1(2), 60-65; Mattia Cocco et al., Journal of Medicinal Chemistry, 2014, 57(24), 10366-10382; T. Satoh et al., Cell Death &Disease, 2013, 4, e644). Therefore, it is anticipated that inhibitors of NLRP3 will block pyroptosis, as well as the release of pro-inflammatory cytokines (e.g. […]) from the cell. THP-1 Cells: Culture and Preparation THP-1 cells (ATCC #TIB-202) were grown in RPMI containing L-glutamine (Gibco #11835) supplemented with imM sodium pyruvate (Sigma #S8636) and penicillin (100 units/ml)/streptomycin (0.1 mg/ml) (Sigma #P4333) in 10% Fetal Bovine Serum (FBS) (Sigma #Fo804). The cells were routinely passaged and grown to confluency (˜10^6 cells/ml). On the day of the experiment, THP-1 cells were harvested and resuspended into RPMI medium (without FBS). The cells were then counted and viability (>90%) checked by Trypan blue (Sigma #T8154). Appropriate dilutions were made to give a concentration of 625,000 cells/ml. To this diluted cell solution was added LPS (Sigma #L4524) to give a […] Final Assay Concentration (FAC). 40 μl of the final preparation was aliquoted into each well of a 96-well plate. The plate thus prepared was used for compound screening. THP-1 Cells Pyroptosis Assay The following method step-by-step assay was followed for compound screening. • 1. Seed THP-1 cells (25,000 cells/well) containing 1.0 μg/ml LPS in 40 μl of RPMI medium (without FBS) in 96-well, black walled, clear bottom cell culture plates coated with poly-D-lysine (VWR #734-0317) • 2. Add […] compound (8 points half-log dilution, with 10 μM top dose) or vehicle (DMSO 0.1% FAC) to the appropriate wells • 3. […] Add 5 μl nigericin (Sigma #N7143) (FAC 5 μM) to all wells • 5. […] At the end of the incubation period, spin plates at 300 xg for 3 mins and remove supernatant • 7. Then add 50 μl of resazurin (Sigma #R7017) (FAC 100μ M resazurin in RPMI medium without FBS) and incubate plates for a further 1-2 hrs at 37° C. and 5% CO2 • 8. Plates were read in an Envision reader at Ex 560 nm and Em 590 nm • 9. IC50 data is fitted to a non-linear regression equation (log inhibitor vs response-variable slope 4-parameters) [table]

IC50 [2] [µM] | SMILES | further results
< 0.16 | CN(CCO)Cc1cc(S(=O)(=O)NC(=O)Nc2c3c(cc4c2CCC4)CCC3)nn1C [Example 124, N-((1,2,3,5,6,7-Hexahydro-s-indacen-4-yl)carbamoyl)-5-(((2-hydroxyethyl)(methyl)amino)methyl)-1-methyl-1H-pyrazole-3-sulfonamide] | AUC [1]: 2067.0 ng·h/mL; Cl [1]: 8.1 mL/min/kg; T1/2 [1]: 14.2 h; Vdss [1]: 1.9 L/kg
< 10 | CC(C)NC(=O)c1cc(S(=O)(=O)NC(=O)Nc2c(C(C)C)cccc2C(C)C)nn1C [Example 138, 3-(N-((2,6-Diisopropylphenyl)carbamoyl)sulfamoyl)-N-isopropyl-1-methyl-1H-pyrazole-5-carboxamide] | –
< 10 | CC(C)c1cccc(C(C)C)c1NC(=O)NS(=O)(=O)c1cc(C(=O)N(C)CC#N)n(C)n1 [Example 140, N-(Cyanomethyl)-3-(N-((2,6-diisopropylphenyl)carbamoyl)sulfamoyl)-N,1-dimethyl-1H-pyrazole-5-carboxamide] | –
< 10 | CC(C)NC(=O)c1cc(S(=O)(=O)NC(=O)Nc2c3c(cc4c2CCC4)CCC3)nn1C [Example 146, 3-(N-((1,2,3,5,6,7-Hexahydro-s-indacen-4-yl)carbamoyl)sulfamoyl)-N-isopropyl-1-methyl-1H-pyrazole-5-carboxamide] | –
< 0.64 | CCN(CC)C(=O)c1cc(S(=O)(=O)NC(=O)Nc2c(C(C)C)cc(F)cc2C(C)C)nn1C [Example 148, N,N-Diethyl-3-(N-((4-fluoro-2,6-diisopropylphenyl)carbamoyl)sulfamoyl)-1-methyl-1H-pyrazole-5-carboxamide, sodium salt] | –
< 2.56 | CCN(CC)C(=O)c1cc(S(=O)(=O)NC(=O)Nc2c(C(C)C)cccc2C(C)C)nn1C [Example 157, 3-(N-((2,6-Diisopropylphenyl)carbamoyl)sulfamoyl)-N,N-diethyl-1-methyl-1H-pyrazole-5-carboxamide] | –
< 2.56 | Cn1nc(S(=O)(=O)NC(=O)Nc2c3c(cc4c2CCC4)CCC3)cc1C(=O)N1CCCC1 [Example 159, N-((1,2,3,5,6,7-Hexahydro-s-indacen-4-yl)carbamoyl)-1-methyl-5-(pyrrolidine-1-carbonyl)-1H-pyrazole-3-sulfonamide] | –
< 2.56 | Cn1nc(S(=O)(=O)NC(=O)Nc2c3c(cc4c2CCC4)CCC3)cc1C(=O)N1CC(F)C1 [Example 161, 5-(3-Fluoroazetidine-1-carbonyl)-N-((1,2,3,5,6,7-hexahydro-s-indacen-4-yl)carbamoyl)-1-methyl-1H-pyrazole-3-sulfonamide, partial ammonium salt] | –
< 2.56 | CC(C)c1cccc(C(C)C)c1NC(=O)NS(=O)(=O)c1cc(C(=O)N2CCCC2)n(C)n1 [Example 163, N-((2,6-Diisopropylphenyl)carbamoyl)-1-methyl-5-(pyrrolidine-1-carbonyl)-1H-pyrazole-3-sulfonamide] | –
< 2.56 | CNC(=O)c1cc(S(=O)(=O)NC(=O)Nc2c3c(cc4c2CCC4)CCC3)nn1C [Example 166, 3-(N-((1,2,3,5,6,7-Hexahydro-s-indacen-4-yl)carbamoyl)sulfamoyl)-N,1-dimethyl-1H-pyrazole-5-carboxamide] | –
< 2.56 | CC(C)c1cccc(C(C)C)c1NC(=O)NS(=O)(=O)c1cc(C(=O)N(C)CCO)n(C)n1 [Example 173, 3-(N-((2,6-Diisopropylphenyl)carbamoyl)sulfamoyl)-N-(2-hydroxyethyl)-N,1-dimethyl-1H-pyrazole-5-carboxamide] | –
< 10 | Cn1nc(S(=O)(=O)NC(=O)Nc2c3c(cc4c2CCC4)CCC3)cc1C(=O)NCCO [Example 174, 3-(N-((1,2,3,5,6,7-Hexahydro-s-indacen-4-yl)carbamoyl)sulfamoyl)-N-(2-hydroxyethyl)-1-methyl-1H-pyrazole-5-carboxamide, partial ammonium salt] | –
< 10 | COCCNC(=O)c1cc(S(=O)(=O)NC(=O)Nc2c3c(cc4c2CCC4)CCC3)nn1C [Example 175, 3-(N-((1,2,3,5,6,7-Hexahydro-s-indacen-4-yl)carbamoyl)sulfamoyl)-N-(2-methoxyethyl)-1-methyl-1H-pyrazole-5-carboxamide, partial ammonium salt] | –
< 2.56 | CN(C)CCn1cc(S(=O)(=O)NC(=O)Nc2c3c(cc4c2CCC4)CCC3)cn1 [Example 182, 1-(2-(Dimethylamino)ethyl)-N-((1,2,3,5,6,7-hexahydro-s-indacen-4-yl)carbamoyl)-1H-pyrazole-4-sulfonamide] | –
< 2.56 | CC(C)c1cc(Cl)cc(C(C)C)c1NC(=O)NS(=O)(=O)c1ccn(C(C)(C)CN(C)C)n1 [Example 200, N-((4-Chloro-2,6-diisopropylphenyl)carbamoyl)-1-(1-(dimethylamino)-2-methylpropan-2-yl)-1H-pyrazole-3-sulfonamide] | –
< 2.56 | CC(C)c1cc(F)cc(C(C)C)c1NC(=O)NS(=O)(=O)c1ccn(C(C)(C)CN(C)C)n1 [Example 201, 1-(1-(Dimethylamino)-2-methylpropan-2-yl)-N-((4-fluoro-2,6-diisopropylphenyl)carbamoyl)-1H-pyrazole-3-sulfonamide] | –
< 0.64 | C[C@@H](CN(C)C)n1ccc(S(=O)(=O)NC(=O)Nc2c3c(cc4c2CCC4)CCC3)n1 [Example 203, (S)-1-(1-(Dimethylamino)propan-2-yl)-N-((1,2,3,5,6,7-hexahydro-s-indacen-4-yl)carbamoyl)-1H-pyrazole-3-sulfonamide] | –
